Measured values: patent US8202879B2, “Quinazoline derivatives having tyrosine kinase inhibitory activity” (Shionogi & Co., Ltd., priority 2005, dated 2012)
Read-outs that look alike come from different tables or passages of the source.

Legend:
[1] = target: T1, EGFR (Homo sapiens, UniProt P00533); assay: Enzyme inhibitory activity on EGFR (time resolution fluorescence, biotinylated poly-Glu-Tyr substrate); format: biochemical
T1 construct: purchased Carna Biosciences, Inc; host or cells: insect cell expression system
Experimental: (§1) Enzyme Inhibitory Activity of Test Compound on EGFR and HER2
(§2) EGFR and HER2 purified from an insect cell expression system, and a biotinylated substrate (synthetic peptide of glutamic acid:tyrosine=4:1) were added to a 384-well plate with ATP added thereto, and an enzyme reaction was performed at room temperature. After completion of the enzyme reaction, an anti-phosphorylated tyrosine antibody labeled with europium and streptavidin labeled with alphycocyanine were added, and a phosphorylated tyrosine residue was quantified by a time resolution fluorescence method.
(§3) A test compound was adjusted to 10 mM using DMSO.
(§4) Further, using 10% DMSO solution, a 1 mM solution was prepared, and this was regarded as a maximum concentration point.
(§5) As a dilution series, a 4-fold dilution series was prepared to a 10 stage.
(§6) As a buffer, TBS containing 10 mM MgCl2, 5 mM MnCl2, 0.2 mM Na3VO4, and 0.1% BSA was used.
(§7) As EGFR and HER2 enzymes, those purified from an insect cell expression system were purchased from Carna Biosciences, Inc.
An EGFR enzyme solution was adjusted to 250 ng/ml using a buffer.
(§8) As a substrate, biotinylated poly-Glu-Tyr (4:1, manufactured by CISbio) was used. A concentration was adjusted to 3.125 μg/ml using the above buffer.
An ATP concentration on study of the EGFR enzyme was adjusted to 125 μM using the buffer.
(§9) For preparing a detection reagent, TBS containing 30 mM EDTA, 0.8M KF and 0.1% BSA was used.
(§10) An anti-phosphorylated tyrosine antibody labeled with europium, PT-66K (CISbio) was adjusted to 195 ng/ml, and streptavidin labeled with alphycocyanine, SA-XL (CISbio) was adjusted to 5 μg/ml.
(§11) As an assay plate, a 384-well plate was used. Per one well, 1.1 μl of a test compound, 4 μl of a substrate solution, and 4 μl of an enzyme solution were added, and 2 μl of an ATP solution was added to initiate an enzyme reaction. The enzyme reaction was performed at room temperature for 60 minutes, and 10 μl of a detection reagent was added to complete the reaction. One hour after completion of the reaction, time resolution fluorescent measurement was performed.

[2] = target: T2, HER2 (Homo sapiens, UniProt P04626); assay: Enzyme inhibitory activity on HER2 (time resolution fluorescence, biotinylated poly-Glu-Tyr substrate); format: biochemical
T2 construct: purchased Carna Biosciences, Inc; host or cells: insect cell expression system
Experimental: as §1, §2, §3, §4, §5, §6, §7
HER2 kinase was adjusted to 1000 ng/ml using a buffer.
as §8
An ATP concentration on study of the HER2 enzyme was adjusted to 290 μM.
as §9, §10, §11

[3] = tested on: BT-474; assay: In vitro cell proliferation inhibition, WST assay; format: cell-based, human; conditions: BT-474 cells, cultured for 3 days, read-out: BT-474 (nM) proliferation inhibitory activity (IC50 value)
Experimental: Test of In Vitro Cell Proliferation Inhibition of Test Compound
As a human-derived cancer cell strain, BT-474 was used. Cells were all cultured in a 37° C., 5% CO2 incubator in a medium in which 10% bovine fetal serum (ICN) and 50 units ml penicillin/60 μg/ml streptomycin solution (GIBCO) were added to Dulbecco's Modified Essential Medium (DMEM, Nacalai Tesque, Inc).

[4] = enzyme reaction at room temperature for 60 minutes
[5] = EGFR purified from insect cell expression system, ATP solution 125 μM, room temperature, 60 minutes
[6] = HER2 purified from insect cell expression system, ATP solution 290 μM, room temperature, 60 minutes

T1 sequence (P00533 25-1210): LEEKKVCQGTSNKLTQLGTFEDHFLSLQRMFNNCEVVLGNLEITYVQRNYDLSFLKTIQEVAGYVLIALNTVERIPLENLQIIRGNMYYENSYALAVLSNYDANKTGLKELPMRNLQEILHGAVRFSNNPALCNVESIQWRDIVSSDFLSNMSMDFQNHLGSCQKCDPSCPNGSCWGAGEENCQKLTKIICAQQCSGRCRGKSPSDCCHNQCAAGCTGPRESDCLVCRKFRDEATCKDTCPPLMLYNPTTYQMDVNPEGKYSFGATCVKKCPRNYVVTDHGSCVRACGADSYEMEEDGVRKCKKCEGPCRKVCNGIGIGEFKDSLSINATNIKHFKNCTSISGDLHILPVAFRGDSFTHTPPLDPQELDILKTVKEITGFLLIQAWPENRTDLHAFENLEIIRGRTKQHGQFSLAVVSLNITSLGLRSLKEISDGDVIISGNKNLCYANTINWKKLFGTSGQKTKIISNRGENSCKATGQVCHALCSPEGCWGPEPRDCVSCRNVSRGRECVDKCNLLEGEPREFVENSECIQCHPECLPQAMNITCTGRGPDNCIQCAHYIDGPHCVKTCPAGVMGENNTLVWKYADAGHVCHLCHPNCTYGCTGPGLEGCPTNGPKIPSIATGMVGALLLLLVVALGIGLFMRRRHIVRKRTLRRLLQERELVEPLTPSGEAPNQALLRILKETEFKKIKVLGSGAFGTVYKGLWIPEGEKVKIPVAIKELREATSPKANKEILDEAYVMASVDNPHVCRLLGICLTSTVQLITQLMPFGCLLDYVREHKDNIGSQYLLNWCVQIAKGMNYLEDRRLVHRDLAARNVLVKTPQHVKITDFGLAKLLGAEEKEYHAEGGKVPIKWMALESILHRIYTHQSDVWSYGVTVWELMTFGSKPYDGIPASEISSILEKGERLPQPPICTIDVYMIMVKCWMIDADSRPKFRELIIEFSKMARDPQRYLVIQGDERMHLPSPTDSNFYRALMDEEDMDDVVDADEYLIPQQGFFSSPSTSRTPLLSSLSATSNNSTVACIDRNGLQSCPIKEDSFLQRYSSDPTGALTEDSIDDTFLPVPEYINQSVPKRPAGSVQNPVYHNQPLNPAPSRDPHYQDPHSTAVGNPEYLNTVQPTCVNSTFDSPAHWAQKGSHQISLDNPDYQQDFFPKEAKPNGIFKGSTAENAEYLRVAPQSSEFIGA
T2 sequence (P04626 23-1255): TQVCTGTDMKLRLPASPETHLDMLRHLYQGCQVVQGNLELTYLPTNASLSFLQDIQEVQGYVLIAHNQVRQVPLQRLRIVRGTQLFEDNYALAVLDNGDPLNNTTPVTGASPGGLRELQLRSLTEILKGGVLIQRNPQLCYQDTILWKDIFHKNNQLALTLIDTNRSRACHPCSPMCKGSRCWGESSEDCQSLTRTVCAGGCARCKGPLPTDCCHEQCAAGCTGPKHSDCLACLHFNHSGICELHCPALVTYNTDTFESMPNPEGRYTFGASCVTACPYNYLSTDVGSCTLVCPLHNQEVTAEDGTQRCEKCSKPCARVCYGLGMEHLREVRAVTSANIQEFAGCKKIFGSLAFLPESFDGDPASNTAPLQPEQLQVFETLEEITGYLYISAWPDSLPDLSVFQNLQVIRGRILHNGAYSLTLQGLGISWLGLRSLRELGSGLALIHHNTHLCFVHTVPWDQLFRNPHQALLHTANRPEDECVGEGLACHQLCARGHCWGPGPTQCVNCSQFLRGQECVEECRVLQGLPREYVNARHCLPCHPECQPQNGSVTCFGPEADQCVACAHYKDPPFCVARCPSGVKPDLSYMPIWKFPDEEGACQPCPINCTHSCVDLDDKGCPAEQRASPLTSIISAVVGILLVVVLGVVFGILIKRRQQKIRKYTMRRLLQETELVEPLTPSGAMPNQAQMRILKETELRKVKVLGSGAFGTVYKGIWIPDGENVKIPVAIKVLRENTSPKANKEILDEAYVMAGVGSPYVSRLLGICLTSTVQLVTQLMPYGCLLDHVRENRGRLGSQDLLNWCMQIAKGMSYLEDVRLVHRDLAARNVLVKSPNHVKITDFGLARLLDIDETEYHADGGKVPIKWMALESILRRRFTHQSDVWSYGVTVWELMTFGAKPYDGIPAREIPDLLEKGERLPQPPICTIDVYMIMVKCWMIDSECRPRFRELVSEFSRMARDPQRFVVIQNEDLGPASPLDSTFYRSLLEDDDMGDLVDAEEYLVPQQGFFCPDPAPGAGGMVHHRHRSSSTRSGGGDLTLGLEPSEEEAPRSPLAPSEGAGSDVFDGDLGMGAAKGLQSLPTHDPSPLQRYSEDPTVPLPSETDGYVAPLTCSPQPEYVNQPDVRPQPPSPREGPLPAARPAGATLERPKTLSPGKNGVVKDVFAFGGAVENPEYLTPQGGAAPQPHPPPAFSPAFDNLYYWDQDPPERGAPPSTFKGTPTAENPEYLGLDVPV

SMILES | IC50 [1, 4] [nM] | IC50 [2, 4] [nM] | IC50 ([3]; Homo sapiens, BT-474, 72 h) [nM] | IC50 [1, 5] [nM] | IC50 [2, 6] [nM] | IC50 [3] [nM]
CC#C/C(=N\OCCNC[C@H]1CCCO1)c1ccc2ncnc(Nc3ccc4c(cnn4Cc4cccc(F)c4)c3)c2c1 [VIII-188] | 20 | 30 | 40 |  |  | 
CC#C/C(=N\O[C@H]1CN[C@H](CO)C1)c1ccc2ncnc(Nc3ccc(OCc4cccc(F)c4)c(Cl)c3)c2c1 [VIII-92] |  |  |  | 32 | 36 | 29
CC#C/C(=N\OC[C@@H]1CCCN1C)c1ccc2ncnc(Nc3ccc(OCc4ccccn4)c(Cl)c3)c2c1 [VIII-154] | 9.5 | 9 | 31 |  |  | 
CC#C/C(=N\OCCNC)c1ccc2ncnc(Nc3ccc(Oc4ccc(C)nc4)c(C)c3)c2c1 [VIII-210] | 42 | 14 | 31 |  |  | 
CC#C/C(=N\OCCNC)c1ccc2ncnc(Nc3ccc4c(cnn4Cc4cccc(F)c4)c3)c2c1 [VIII-183] | 7.1 | 8.3 | 10 |  |  | 
CC#C/C(=N\OCCN1CCC(N)CC1)c1ccc2ncnc(Nc3ccc(OCc4cccc(F)c4)c(Cl)c3)c2c1 [VIII-98] |  |  |  | 21 | 21 | 65
CC#C/C(=N\OCCNC[C@@H]1COC(=O)N1)c1ccc2ncnc(Nc3ccc4c(cnn4Cc4cccc(F)c4)c3)c2c1 [VIII-191] | 17 | 42 | 33 |  |  | 
CNCCO/N=C(\C#CCOC)c1ccc2ncnc(Nc3ccc(OCc4ccccn4)c(Cl)c3)c2c1 [VIII-180] | 7.8 | 6 | 5 |  |  | 
CC#C/C(=N\OCCN1CCNC(=O)C1)c1ccc2ncnc(Nc3ccc(OCc4cccc(F)c4)c(Cl)c3)c2c1 [VIII-94] |  |  | 26 | 213 | 150 | 
CC#C/C(=N\OC[C@@H](COC)NC)c1ccc2ncnc(Nc3ccc(OCc4cccc(F)c4)c(Cl)c3)c2c1 [VIII-56] |  |  |  | 7.9 | 13.8 | 14
CC#C/C(=N\OC[C@@H](C)N)c1ccc2ncnc(Nc3ccc(OCc4ccccn4)c(Cl)c3)c2c1 [VIII-129] | 7.1 | 6.3 | 12 |  |  | 
CC#C/C(=N\OCCNCCN(C)S(C)(=O)=O)c1ccc2ncnc(Nc3ccc4c(cnn4Cc4cccc(F)c4)c3)c2c1 [VIII-186] | 19 | 26 | 29 |  |  | 
CC#C/C(=N\OC[C@@H]1CNCCO1)c1ccc2ncnc(Nc3ccc(OCc4ccccn4)c(Cl)c3)c2c1 [VIII-168] | 8 | 9 | 44 |  |  | 
CC#C/C(=N\OCCNC)c1ccc2ncnc(Nc3ccc(S(=O)(=O)c4ccccc4)cc3)c2c1 [VIII-214] | 4.5 | 3.3 | 25 |  |  | 
CNCCO/N=C(\C#CC1CC1)c1ccc2ncnc(Nc3ccc(OCc4cccc(F)c4)c(Cl)c3)c2c1 [VIII-120] |  |  | 32 | 33 | 29 | 
CC#C/C(=N\OCCN1CCS(=O)(=O)CC1)c1ccc2ncnc(Nc3ccc(OCc4ccccn4)c(Cl)c3)c2c1 [VIII-162] | 51 | 62 | 42 |  |  | 
CC#C/C(=N\OCCNCCS(C)(=O)=O)c1ccc2ncnc(Nc3ccc(OCc4ccccn4)c(Cl)c3)c2c1 [VIII-132] | 14 | 14 | 18 |  |  | 
CC#CC(=NOCC1CN(C)CCN1C)c1ccc2ncnc(Nc3ccc(OCc4ccccn4)c(Cl)c3)c2c1 (stereo not drawn) [VIII-172] | 14 | 16 | 70 |  |  | 
CNCCO/N=C(\C#CCOC)c1ccc2ncnc(Nc3ccc4c(cnn4Cc4cccc(F)c4)c3)c2c1 [VIII-199] | 6.3 | 5.2 | 33 |  |  | 
CC#C/C(=N\OC[C@@H]1COCCN1)c1ccc2ncnc(Nc3ccc(OCc4ccccn4)c(Cl)c3)c2c1 [VIII-169] | 13 | 15 | 35 |  |  | 
CC#C/C(=N\OC[C@H]1CS(=O)(=O)CCN1)c1ccc2ncnc(Nc3ccc(OCc4cccc(F)c4)c(Cl)c3)c2c1 [VIII-118] |  |  |  | 197 | 223 | 22

SMILES | IC50 [1, 4] [nM] | IC50 [2, 4] [nM] | IC50 ([3]; Homo sapiens, BT-474, 72 h) [nM] | IC50 [1, 5] [nM] | IC50 [2, 6] [nM] | IC50 [3] [nM]
CC#C/C(=N\OCCN1CCNC(=O)C1)c1ccc2ncnc(Nc3ccc4c(cnn4Cc4cccc(F)c4)c3)c2c1 [VIII-196] | 11 | 20 | 28 |  |  | 
CC#C/C(=N\OCCN1CCCC1)c1ccc2ncnc(Nc3ccc(OCc4ccccn4)c(Cl)c3)c2c1 [VIII-148] | 6.1 | 5.8 | 26 |  |  | 
CC#C/C(=N\OCCN1CCN(C)CC1)c1ccc2ncnc(Nc3ccc(OCc4ccccn4)c(Cl)c3)c2c1 [VIII-164] | 7.3 | 7.6 | 31 |  |  | 
CC#C/C(=N\OC[C@H]1CCCN1CC(=O)O)c1ccc2ncnc(Nc3ccc(OCc4cccc(F)c4)c(Cl)c3)c2c1 [VIII-88] |  |  |  | 47 | 56 | 12
CC#C/C(=N\OCCNCCOC(N)=O)c1ccc2ncnc(Nc3ccc4c(cnn4Cc4cccc(F)c4)c3)c2c1 [VIII-187] | 10 | 9 | 24 |  |  | 
CC#C/C(=N\OC[C@H]1CNC[C@H](C)O1)c1ccc2ncnc(Nc3ccc(OCc4cccc(F)c4)c(Cl)c3)c2c1 [VIII-117] |  |  |  | 47 | 53 | 20
CC#C/C(=N\OC[C@H]1CCCN1C)c1ccc2ncnc(Nc3ccc(OCc4ccccn4)c(Cl)c3)c2c1 [VIII-158] | 3.8 | 3.8 | 27 |  |  | 
CC#C/C(=N\OC[C@@H]1COCCN1CC#N)c1ccc2ncnc(Nc3ccc(OCc4cccc(F)c4)c(Cl)c3)c2c1 [VIII-104] |  |  |  | 238 | 202 | 60
CC#C/C(=N\OC[C@H]1CN(CCO)CCN1)c1ccc2ncnc(Nc3ccc(OCc4ccccn4)c(Cl)c3)c2c1 [VIII-174] | 25 | 28 | 14 |  |  | 
CC#C/C(=N\OCCNCCOC(N)=O)c1ccc2ncnc(Nc3ccc(OCc4cccc(F)c4)c(Cl)c3)c2c1 [VIII-53] |  |  | 12 | 79 | 80 | 
Fc1cccc(COc2ccc(Nc3ncnc4ccc(/C=N/OCCN5CCOCC5)cc34)cc2Cl)c1 [Compound V-7] |  |  | 134 | 36 | 76 | 
CC#C/C(=N\OCCN1CCC[C@@H]1CO)c1ccc2ncnc(Nc3ccc(OCc4ccccn4)c(Cl)c3)c2c1 [VIII-150] | 12 | 11 | 30 |  |  | 
CC#C/C(=N\OCCNC[C@@H]1CCCO1)c1ccc2ncnc(Nc3ccc4c(cnn4Cc4cccc(F)c4)c3)c2c1 [VIII-189] | 17 | 27 | 25 |  |  | 
CC#C/C(=N\OCCNC[C@H]1CCC(=O)N1)c1ccc2ncnc(Nc3ccc4c(cnn4Cc4cccc(F)c4)c3)c2c1 [VIII-190] | 8.9 | 11.1 | 14 |  |  | 
CC#C/C(=N\OC[C@@H]1CCCN1)c1ccc2ncnc(Nc3ccc(OCc4ccccn4)c(Cl)c3)c2c1 [VIII-153] | 10 | 11 | 21 |  |  | 
CC#C/C(=N\OCCCNC)c1ccc2ncnc(Nc3ccc(OCc4cccc(F)c4)c(Cl)c3)c2c1 [VIII-67] |  |  |  | 16 | 14 | 32
CC#C/C(=N\OC[C@@H]1CNCC(=O)N1)c1ccc2ncnc(Nc3ccc(OCc4ccccn4)c(Cl)c3)c2c1 [VIII-179] | 4.6 | 5 | 48 |  |  | 
CC#C/C(=N\OCC(=O)NCCN(C)C)c1ccc2ncnc(Nc3ccc(OCc4cccc(F)c4)c(Cl)c3)c2c1 [VIII-226] | 20 | 10 | 5 |  |  | 
CC#C/C(=N\OC[C@@H]1C[C@H](O)CN1)c1ccc2ncnc(Nc3ccc4c(cnn4Cc4cccc(F)c4)c3)c2c1 [VIII-194] | 8.6 | 13 |  |  |  | 25
CCCC#CC(=NOCCNC)c1ccc2ncnc(Nc3ccc(OCc4cccc(F)c4)c(Cl)c3)c2c1 [VIII-127] | 37 | 35 |  |  |  | 61
